From patent US20240197698A1, “TREATMENT OF ACUTE ANXIETY WITH AN ALPHA-7 NICOTINIC ACETYLCHOLINE RECEPTOR MODULATOR” (Vanda Pharmaceuticals Inc., priority 2022, published 2024)

Key:
[1] = Plasma concentration of VQW-765 after the TSST by LC-MS/MS; conditions: single oral 10 mg; for Mean plasma concentration: female subjects
[2] = test system: subjects with substantial public speaking anxiety; assay: Trier Social Stress Test (TSST) public speaking challenge, randomized double-blind placebo-controlled study: SUDS, CGI-C, PGI-C; format: in vivo, human; design: key to SUDS Mean: SUDS 0–100; 0 = no distress/totally relaxed, 100 = highest anxiety ever felt; conditions: for PGI-C Mean / CGI-C Mean: Post-TSST
Method: A multicenter, randomized, double-blind, placebo-controlled study evaluates the efficacy and safety of VQW-765 in subjects with substantial public speaking anxiety. […] The study design is illustrated in FIG. 1 and Table 2 (below). Visit 1 includes screening for eligibility. At visit 2, subjects are asked for a baseline SUDS rating and then randomized to one of two arms in a 1:1 ratio. […] VQW-765 is provided in the form of capsules that are white, opaque, hard gelatin, size 3, containing 10 mg VQW-765 and lactose monohydrate, microcrystalline cellulose, methocel, croscarmellose sodium, colloidal silicon dioxide, and magnesium stearate. Placebo capsules are provided in size and appearance identical to those containing VQW-765. Two hours later, subjects are instructed to prepare for a 5-minute speech for a mock job interview (resting phase). After 3 minutes of preparation (anticipation phase), the subject delivered the speech in front of an interview panel with two clinical staff (performance phase). SUDS rating was collected at each minute from the resting to performance phase. Eligible subjects are trained to use SUDS, a self-reported rating scale from 0 to 100, used to measure the intensity of anxiety during the TSST. A SUDS rating of “0” equals “no distress/totally relaxed” and 100 equals “highest anxiety/distress that you have ever felt.” In addition, the Liebowitz Social Anxiety Score (LSAS) is administered, and blood samples are collected for pharmacogenetic analysis. LSAS is a clinician-administered rating scale used to assess how social anxiety plays a role in daily life across a variety of situations. The LSAS is used to study outcomes in clinical trials, and includes 24 items to assess both social anxiety in situations and avoidance of those situations. Each item is rated as 0, none; 1, mild; 2, moderate; or 3, severe. The maximal score is 144. After a waiting period of about two (2) hours from administration of study medication, subjects receive a modified Trier Social Stress Test (TSST) involving a public speaking challenge. The subject is instructed to prepare for a 5-minute speech for a job interview, and is asked for a SUDS rating (resting phase). Then the subject has 3 minutes to mentally prepare. A SUDS rating is collected at each minute interval (anticipation phase). Next, the subject gives a 5-minute speech to an audience of two clinical staff members dressed in white coats and previously unknown to the subject. A SUDS rating is collected just before the speech and then at each minute during the speech (performance phase). The speech is video recorded, and the video camera is observed by the subject. […] Physiological biomarkers associated with anxiety or acute stress response, including heart rate, blood pressure, body temperature, and sweating are monitored continuously by medical devices, including an ePatch Extended Holter Device throughout the Public Speaking challenge.

[3] = test system: subjects with substantial public speaking anxiety; format: in vivo, human

`Cc1ccc(-c2ccc(O[C@H]3CN4CCC3CC4)cn2)cc1` [VQW-765, (R)-3-(6-p-tolyl-pyridin-3-yloxy)-1-aza-bicyclo[2.2.2]octane] gave a Mean plasma concentration ([1]; exposure group PC-1 (n = 7)) of 0.25 nM, a Mean plasma concentration ([1]; exposure group PC-2 (n = 7)) of 1.18 nM and a Mean plasma concentration ([1]; exposure group PC-3 (n = 8)) of 1.58 nM. For the same molecule, the Mean plasma concentration ([1]; exposure group PC-4 (n = 8)) was 2.06 nM, the Mean plasma concentration ([1]; exposure group PC-5 (n = 8)) was 2.9 nM and the Mean plasma concentration ([1]; exposure group PC-6 (n = 8)) was 3.82 nM. The Mean plasma concentration ([1]; exposure group PC-7 (n = 8)) was 5.1 nM, the Mean plasma concentration ([1]; exposure group PC-8 (n = 8)) was 7.04 nM and the Mean plasma concentration ([1]; exposure group PC-9 (n = 8)) was 9.79 nM. The Mean plasma concentration ([1]; exposure group PC-10 (n = 7)) was 13.39 nM, the “plasma concentrations in the middle 50%, second and third quartiles” value [1] was 1.57 to 6.32 nM and the “SUDS Mean” value ([2]; Female (n = 82), Anticipation phase, P-value 0.0446 vs placebo) was 54.80. The “SUDS Mean” value ([2]; Female (n = 82), Performance phase, P-value 0.0342 vs placebo) was 59.55, the “SUDS Mean” value ([2]; Female (n = 82), Pre-dose phase (baseline), P-value 0.2239 vs placebo) was 34.27 and the “SUDS Mean” value ([2]; Female (n = 82), Resting phase, P-value 0.0576 vs placebo) was 49.15. For the same molecule, the “SUDS Mean” value ([2]; Female-50% quartile of exposure (n = 38), Anticipation phase, P-value 0.0384 vs placebo) was 53.07, the “SUDS Mean” value ([2]; Female-50% quartile of exposure (n = 38), Performance phase, P-value 0.0046 vs placebo) was 54.37 and the “SUDS Mean” value ([2]; Female-50% quartile of exposure (n = 38), Pre-dose phase (baseline), P-value 0.4530 vs placebo) was 36.58. For the same molecule, the “SUDS Mean” value ([2]; Female-50% quartile of exposure (n = 38), Resting phase, P-value 0.0577 vs placebo) was 47.63, the “response on SUDS compared to placebo” value ([2]; Females, performance phase, p=0.034) was “larger magnitude and significant response” and the “SUDS Mean” value ([2]; ITT (n = 116), Anticipation phase, single oral 10 mg, P-value 0.0890 vs placebo) was 52.96. For the same molecule, the “SUDS Mean” value ([2]; ITT (n = 116), Performance phase, single oral 10 mg, P-value 0.1164 vs placebo) was 58.60, the “PGI-C Mean” value ([2]; ITT (n = 116), scale 1 to 7, P-value 0.3993 vs placebo) was 3.4 and the “CGI-C Mean” value ([2]; ITT (n = 116), scale 1 to 7, P-value 0.4038 vs placebo) was 3.6. For the same molecule, the “SUDS Mean” value ([2]; ITT (n = 116), Pre-dose phase (baseline), single oral 10 mg, P-value 0.2215 vs placebo) was 34.66, the “SUDS Mean” value ([2]; ITT (n = 116), Resting phase, single oral 10 mg, P-value 0.1423 vs placebo) was 47.76 and the “SUDS Mean” value ([2]; ITT-50% quartile of exposure (n = 56), Anticipation phase, P-value 0.0472 vs placebo) was 50.89. The “SUDS Mean” value ([2]; ITT-50% quartile of exposure (n = 56), Performance phase, P-value 0.0332 vs placebo) was 55.36, the “SUDS Mean” value ([2]; ITT-50% quartile of exposure (n = 56), Pre-dose phase (baseline), P-value 0.3845 vs placebo) was 35.89 and the “SUDS Mean” value ([2]; ITT-50% quartile of exposure (n = 56), Resting phase, P-value 0.1059 vs placebo) was 46.25. The “SUDS Mean” value ([2]; ITT-LSAS ≥ 60 (n = 97), Anticipation phase, P-value 0.1535 vs placebo) was 54.05, the “SUDS Mean” value ([2]; ITT-LSAS ≥ 60 (n = 97), Performance phase, P-value 0.1664 vs placebo) was 59.67 and the “SUDS Mean” value ([2]; ITT-LSAS ≥ 60 (n = 97), Pre-dose phase (baseline), P-value 0.3225 vs placebo) was 37.01. For the same molecule, the “SUDS Mean” value ([2]; ITT-LSAS ≥ 60 (n = 97), Resting phase, P-value 0.1509 vs placebo) was 49.28, the “PGI-C, difference to placebo” value ([2]; ITT, p=0.399) was “No significant differences” and the “CGI-C, difference to placebo” value ([2]; ITT, p=0.404) was “No significant differences”. The “intensity of anxiety as measured by the SUDS compared to placebo” value ([2]; ITT, performance phase, p=0.116) was “trend of improvement”, the “performance anxiety compared to placebo” value ([2]; LSAS total score≥60 with efficacious exposures, p=0.014) was “significantly reduced” and the “performance anxiety compared to placebo” value ([2]; females, LSAS total score≥60 with efficacious exposures, p=0.004) was “significantly reduced”. The “SUDS compared to placebo” value ([2]; males with efficacious exposures, FIG. 5C) was “do not show improvement”, the “SUDS rating compared to placebo” value ([2]; males, FIG. 2C) was “do not show improvement” and the “SUDS rating compared to placebo” value ([2]; middle 50% of exposure, second and third quartiles, VQW-M (1.5-8 pmol/ml), p=0.033) was “significant improvement”. The “SUDS Mean” value ([2]; post-hoc, Female-Efficacious exposure (n = 46), Anticipation phase, P-value 0.0116 vs placebo) was 51.38, the “SUDS Mean” value ([2]; post-hoc, Female-Efficacious exposure (n = 46), Performance phase, P-value 0.0029 vs placebo) was 54.00 and the “CGI-C Mean” value ([2]; post-hoc, Female-Efficacious exposure (n = 46), P-value 0.2417 vs placebo) was 3.4. The “PGI-C Mean” value ([2]; post-hoc, Female-Efficacious exposure (n = 46), P-value 0.4655 vs placebo) was 3.4, the “SUDS Mean” value ([2]; post-hoc, Female-Efficacious exposure (n = 46), Pre-dose phase (baseline), P-value 0.4267 vs placebo) was 36.30 and the “SUDS Mean” value ([2]; post-hoc, Female-Efficacious exposure (n = 46), Resting phase, P-value 0.0282 vs placebo) was 46.52. The “SUDS Mean” value ([2]; post-hoc, ITT-Efficacious exposure (n = 69), Anticipation phase, P-value 0.0165 vs placebo) was 49.86, the “SUDS Mean” value ([2]; post-hoc, ITT-Efficacious exposure (n = 69), Performance phase, P-value 0.0202 vs placebo) was 54.96 and the “CGI-C Mean” value ([2]; post-hoc, ITT-Efficacious exposure (n = 69), P-value 0.4343 vs placebo) was 3.5. The “PGI-C Mean” value ([2]; post-hoc, ITT-Efficacious exposure (n = 69), P-value 0.5525 vs placebo) was 3.4, the “SUDS Mean” value ([2]; post-hoc, ITT-Efficacious exposure (n = 69), Pre-dose phase (baseline), P-value 0.3368 vs placebo) was 35.51 and the “SUDS Mean” value ([2]; post-hoc, ITT-Efficacious exposure (n = 69), Resting phase, P-value 0.0471 vs placebo) was 45.07. For the same molecule, the “anxiety (SUDS) during the TSST compared to placebo” value ([2]; post-hoc, subjects not wearing a face mask (n=5 on VQW-765, n=6 on placebo), FIG. 9) was “significantly less anxious”, the “performance anxiety compared to placebo” value ([2]; post-hoc, subjects with efficacious exposures, p=0.020, FIG. 5A) was “significantly alleviated” and the “CGI-C, difference to placebo” value ([2]; post-hoc, subjects with efficacious exposures, p=0.325) was “does not reveal any significant difference”. The “PGI-C, difference to placebo” value ([2]; post-hoc, subjects with efficacious exposures, p=0.376) was “does not reveal any significant difference”, the “pattern of HRV change” value ([3]; in vivo) was “significant decline” and the “pattern of HRV increase” value ([3]; performance and recovery phases, FIGS. 6C, 6D) was “steady”.
